The structures appear in SMILES notation. Structures can show the parent of a compound that is named as a salt.

Consider eight compounds from patent US8629164B2, “Inhibitors of NF-κB” (Profectus Biosciences, Inc., priority 2009, dated 2014).

In experiment [1] the test system is NF-κB. Put plainly: 293-cell pNF-κB-luc reporter assay, TNF-α induced. The experiment is classed as cell-based. The settings on record: HEK293 cells, NF-κB driven luciferase expression, read-out: 293/NFkB-luc EC50. Here is the method: (§1) Inhibition of NF-κB in cells by the compound of Example 1. Two reporter cell assays were used to determine the ability of the compound of Example 1 to inhibit NE-KB driven transcription. The first assay was a 293-cell based assay with a stably integrated pNF-κB-luc reporter plasmid containing 3 NF-κB promoter elements. The second assay was a 293-cell based assay with a stably integrated pTRH1-NF-κB-dscGFP reporter containing 4 NF-κB promoter elements. Cells were treated with 0, 0.2, 1, 10, 20 and 40 μM of the compound of Example 1 for 2 hours then were induced with 20 ng/ml TNF-α for 18 hours. Following the induction, luminescence or fluorescence was quantified using a Beckman-Coulter 2300 plate reader. […] These values represent the median value generated from three independent experiments±the standard error. As a control, 0.5% DMSO treated and untreated cells were compared to verify that the Example 1 carrier had no effect on the expression of luciferase or in the readout of the assay. There was a slight decrease in the output from the assay in the DMSO treated population although it was not statistically significant. As a result of the controls, the decrease in activity in the drug treated samples was compared to the DMSO control sample.
(In general: In a reporter assay the amount or activity of a reporter protein is the signal.)

Experiment [2] has as its system NF-κB. Put plainly: 293-cell pTRH1-NF-κB-dscGFP reporter assay, TNF-α induced. It is filed as cell-based. The settings on record: Homo sapiens, HEK293, HEK293 cells, NF-κB driven GFP expression; read-out: NF-kB/293/GFP EC50. How it is done:
as §1

Experiment [3] has as its system IL-6 release from RAW264.7 cells. Kind of experiment: IL-6 release from LPS stimulated RAW264.7 cells. The experiment is classed as cell-based, mouse. How it is done: Specifically, A and B show the effects of the compound of Example 1 on soluble PGE2 and Il-6 secretion from RAW264.7 cells stimulated by 1 μg/mL of LPS. The cells were treated with the indicated concentrations of the compound of Example 1 for 2 hours, and then LPS was added and incubation continued for 4 hours. […]

Experiment [4] has as its target p65 (RelA) (Homo sapiens, UniProt Q04206). Put plainly: TransAM NF-κB Family DNA Binding ELISA, p65. Conditions: p65 binding IC50 (uM), binding to NF-κB sites. (In general: An ELISA detects its analyte on a solid surface through an enzyme-linked reagent.)
Procedure: (§2) Treated samples were then transferred to 30 μL Complete Binding Buffer (with DTT) in microplate wells pre-coated with the NF-κB consensus oligonucleotide. […] The plate was incubated for 1 hour at room temperature with gentle shaking and then washed 3 times with 200 μL 1× Wash Buffer. NF-κB p65, p50, p52, RelB, or c-Rel subunits bound to the plate were detected with 100 μL of the primary antibody (diluted 1:1000 in 1× Antibody Buffer) specific for that subunit. The plate was incubated for 1 hour at room temperature and then washed 3 times with 200 μL 1× Wash Buffer. Next, 100 μL of a HRP conjugated goat anti-rabbit antibody (diluted 1:1,000 in 1× Antibody Buffer) was added to each well. The plate was incubated for 1 hour at room temperature and then washed 4 times with 200 μL 1× Wash Buffer. 100 μL of room temperature Developing Solution was added to each well. The reaction was allowed to develop for 2-10 minutes until a medium dark blue color developed (depending on the subunit activity in the lot of extract or lot of recombinant protein used) and then the reaction was stopped with 100 μL Stop Solution yielding a yellow color. Absorbance was recorded using a Becton-Dickinson DTX 880 Multimode Detector at 450 nm with a reference wavelength subtracted at 620 nm.
Experiment [5] has as its target T1, p50 (Homo sapiens, UniProt P19838).
T1 sequence (P19838 1-433 limits assumed): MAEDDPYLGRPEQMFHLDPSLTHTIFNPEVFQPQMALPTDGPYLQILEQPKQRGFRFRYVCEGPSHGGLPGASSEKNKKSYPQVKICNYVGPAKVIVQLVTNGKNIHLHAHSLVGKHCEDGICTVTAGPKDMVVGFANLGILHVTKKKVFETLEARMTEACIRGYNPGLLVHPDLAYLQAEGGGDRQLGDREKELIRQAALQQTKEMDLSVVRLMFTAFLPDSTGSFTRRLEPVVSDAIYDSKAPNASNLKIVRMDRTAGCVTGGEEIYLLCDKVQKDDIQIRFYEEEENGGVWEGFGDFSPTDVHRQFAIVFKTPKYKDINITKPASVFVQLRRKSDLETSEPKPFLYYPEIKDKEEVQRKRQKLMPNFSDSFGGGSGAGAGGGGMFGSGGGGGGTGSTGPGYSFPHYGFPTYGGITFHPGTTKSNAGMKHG
Put plainly: TransAM NF-κB Family DNA Binding ELISA, p50. The settings on record: for IC50: p50 binding IC50 (uM), cells without % sign; for inhibition at 5 µM: read-out: p50 binding % inhibit. at 5 uM.
Procedure: as §2

The target in experiment [6] is T2, p52 (Homo sapiens, UniProt Q00653).
T2 sequence (Q00653 1-454 limits assumed): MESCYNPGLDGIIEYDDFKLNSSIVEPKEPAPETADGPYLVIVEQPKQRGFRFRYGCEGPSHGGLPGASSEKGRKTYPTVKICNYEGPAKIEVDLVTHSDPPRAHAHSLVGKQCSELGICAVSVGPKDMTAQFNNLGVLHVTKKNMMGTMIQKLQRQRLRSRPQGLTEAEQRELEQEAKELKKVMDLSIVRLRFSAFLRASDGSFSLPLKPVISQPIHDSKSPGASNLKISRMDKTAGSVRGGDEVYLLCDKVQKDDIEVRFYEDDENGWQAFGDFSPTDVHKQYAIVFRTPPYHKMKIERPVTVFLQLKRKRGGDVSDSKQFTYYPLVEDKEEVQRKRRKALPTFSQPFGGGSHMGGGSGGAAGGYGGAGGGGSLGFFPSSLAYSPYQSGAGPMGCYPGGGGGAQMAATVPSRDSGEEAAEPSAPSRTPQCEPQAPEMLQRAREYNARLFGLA
Kind of experiment: TransAM NF-κB Family DNA Binding ELISA, p52. The settings on record: for IC50: p52 binding IC50 (uM), cells without % sign; for inhibition at 5 µM: read-out: p52 binding % inhibit. at 5 uM, at 5 uM.
Procedure: as §2

Experiment [7] has as its target T3, RelB (Homo sapiens, UniProt Q01201).
T3 sequence (Q01201 1-579): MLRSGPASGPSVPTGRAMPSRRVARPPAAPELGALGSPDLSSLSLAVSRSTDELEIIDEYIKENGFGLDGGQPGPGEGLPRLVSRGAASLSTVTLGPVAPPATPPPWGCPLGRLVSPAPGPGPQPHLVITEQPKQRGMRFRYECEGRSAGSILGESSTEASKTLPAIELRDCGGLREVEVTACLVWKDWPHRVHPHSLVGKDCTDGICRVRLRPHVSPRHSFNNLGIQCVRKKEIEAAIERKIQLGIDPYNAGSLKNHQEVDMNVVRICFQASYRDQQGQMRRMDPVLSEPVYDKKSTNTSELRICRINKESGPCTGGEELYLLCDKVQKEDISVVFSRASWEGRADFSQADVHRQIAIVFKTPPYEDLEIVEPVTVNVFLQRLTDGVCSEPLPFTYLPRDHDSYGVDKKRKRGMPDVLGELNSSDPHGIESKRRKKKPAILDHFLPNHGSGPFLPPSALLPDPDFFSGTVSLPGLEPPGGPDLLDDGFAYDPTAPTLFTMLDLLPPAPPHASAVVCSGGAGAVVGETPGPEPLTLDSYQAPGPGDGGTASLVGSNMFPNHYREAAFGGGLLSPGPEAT
T3 sequence (Q00653 1-454 partner limits assumed): T2 sequence (Q00653 1-454 limits assumed)
Kind of experiment: TransAM NF-κB Family DNA Binding ELISA, RelB. Conditions: for IC50: RelB binding IC50 (uM), cells without % sign; for inhibition at 5 µM: read-out: RelB binding % inhibit. at 5 uM, at 5 uM.

The target in experiment [8] is T4, c-Rel (Homo sapiens, UniProt Q04864).
T4 sequence (Q04864 2-619 limits assumed): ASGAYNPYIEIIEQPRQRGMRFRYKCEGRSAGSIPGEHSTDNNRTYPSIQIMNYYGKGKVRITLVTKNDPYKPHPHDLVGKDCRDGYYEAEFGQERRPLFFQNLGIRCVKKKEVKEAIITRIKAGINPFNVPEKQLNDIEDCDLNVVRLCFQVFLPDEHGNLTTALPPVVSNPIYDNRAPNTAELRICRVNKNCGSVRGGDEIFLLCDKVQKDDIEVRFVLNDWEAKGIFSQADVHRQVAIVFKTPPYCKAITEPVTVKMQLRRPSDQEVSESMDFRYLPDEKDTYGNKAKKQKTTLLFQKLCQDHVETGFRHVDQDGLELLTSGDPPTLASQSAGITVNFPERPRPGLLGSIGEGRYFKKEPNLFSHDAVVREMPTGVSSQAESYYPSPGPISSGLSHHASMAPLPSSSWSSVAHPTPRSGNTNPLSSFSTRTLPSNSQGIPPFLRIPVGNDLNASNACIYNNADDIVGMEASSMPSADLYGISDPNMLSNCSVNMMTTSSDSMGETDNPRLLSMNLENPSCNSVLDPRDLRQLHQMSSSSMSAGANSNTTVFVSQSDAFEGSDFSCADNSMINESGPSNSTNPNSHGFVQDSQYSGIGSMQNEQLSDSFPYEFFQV
Put plainly: TransAM NF-κB Family DNA Binding ELISA, c-Rel. Conditions: for IC50: c-Rel binding IC50 (uM), cells without % sign; for inhibition at 5 µM: read-out: c-Rel binding % inhibit. at 5 uM, at 5 uM.
Procedure: as §2

Setting [9] is: Mus musculus, RAW264.7, RAW 264.7 cells.

Chain of p65 (RelA) (Q04206 whole entry): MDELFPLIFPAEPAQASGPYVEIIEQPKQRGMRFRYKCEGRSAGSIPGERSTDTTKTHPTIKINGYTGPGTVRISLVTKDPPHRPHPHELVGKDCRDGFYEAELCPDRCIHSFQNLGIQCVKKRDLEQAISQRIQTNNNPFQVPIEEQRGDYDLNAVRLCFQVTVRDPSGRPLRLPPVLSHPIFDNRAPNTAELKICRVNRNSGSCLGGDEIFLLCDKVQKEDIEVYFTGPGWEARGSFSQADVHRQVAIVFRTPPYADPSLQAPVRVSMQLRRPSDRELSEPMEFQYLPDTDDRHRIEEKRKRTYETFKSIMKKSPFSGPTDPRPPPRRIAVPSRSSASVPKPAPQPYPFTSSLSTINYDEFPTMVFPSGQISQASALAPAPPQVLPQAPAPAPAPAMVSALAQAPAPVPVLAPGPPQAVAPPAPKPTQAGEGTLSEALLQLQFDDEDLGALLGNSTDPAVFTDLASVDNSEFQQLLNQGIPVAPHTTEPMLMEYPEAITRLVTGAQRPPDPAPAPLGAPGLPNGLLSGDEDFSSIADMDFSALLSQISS

As a reminder, the IC50 is the point on the concentration scale where inhibition reaches its midpoint. Take `O=C(NC1=CC(=O)C2OC2C1=O)c1cc2ccccc2nc1O` (racemic) [Example 28, (±)-N-(2,5-dioxo-7-oxabicyclo[4.1.0]hept-3-en-3-yl)-2-hydroxyquinoline-3-carboxamide]: the EC50 in experiment [1] came to 2.7 µM; in experiment [2] it was 4.2 µM; in experiment [3] (setting [9]) it was 190 nM. In addition, the IC50 amounted to 3 µM in experiment [4]; 20 µM in experiment [5]; 9.6 µM in experiment [6]; 3 µM in experiment [7]; 4.5 µM in experiment [8].

Consider `O=C(NC1=CC(=O)C2OC2C1O)c1cnc(N2CCCCC2)nc1O` (racemic) [Example 11, (±)-4-hydroxy-2-piperidin-1-yl-pyrimidine-5-carboxylic acid (2-hydroxy-5-oxo-7-oxa-bicyclo[4.1.0]hept-3-en-3-yl)-amide], for which the EC50 was found to be 15 µM in experiment [1], 5.8 µM in experiment [2] and 7700 nM in experiment [3] (setting [9]). In addition, the IC50 in experiment [4] was found to be 4.6 µM. The inhibition at 5 µM in experiment [5] came out at 4%; in experiment [6], 9%; in experiment [7], 18%; in experiment [8] it was 40%.

Take `O=C(NC1=CC(=O)C2OC2C1O)c1ncccc1O` (racemic) [Example 3, (±)-3-hydroxy-N-(2-hydroxy-5-oxo-7-oxabicyclo[4.1.0]hept-3-en-3-yl)picolinamide]: the figures for the EC50 in experiment [1], in experiment [2] and in experiment [3] (RAW 264.7 cells) were 15 µM, 3.4 µM and 1400 nM, respectively. The IC50 in experiment [5] is above 636 µM; in experiment [6], 301 µM. Also, the “RelB binding % inhibit. at 5 uM” value in experiment [7] is listed as 0%. Besides, the “c-Rel binding % inhibit. at 5 uM” value in experiment [8] was 15%.

As to `COc1nc2ccccc2cc1C(=O)NC1=CC(=O)C2OC2C1O` (racemic) [Example 25, (±)-2-methoxy-quinoline-3-carboxylic acid (2-hydroxy-5-oxo-7-oxa-bicyclo[4.1.0]hept-3-en-3-yl)-amide], the EC50 in experiment [1] was determined as 4.1 µM; in experiment [2] it was 0.84 µM; in experiment [3] (setting [9]), 130 nM. Besides, the IC50 was 1.1 µM in experiment [4]; 1.2 µM in experiment [5]; 4.7 µM in experiment [6]; 0.65 µM in experiment [7]; 0.49 µM in experiment [8].

`CS(=O)(=O)O.O=C(NC1=CC(=O)C2OC2C1O)c1ncccc1O` (racemic) [Example 12, (±)-3-hydroxy-N-(2-hydroxy-5-oxo-7-oxabicyclo[4.1.0]hept-3-en-3-yl)picolinamide, mesylate]: the EC50 amounted to 22 µM in experiment [1] (mesylate) and 2500 nM in experiment [3] (RAW 264.7 cells, mesylate). Moreover, the “p52 binding % inhibit. at 5 uM” value in experiment [6] came out at 14%. Moreover, the “RelB binding % inhibit. at 5 uM” value in experiment [7] was 6%. The “c-Rel binding % inhibit. at 5 uM” value in experiment [8] is 7%.

For the compound `COc1cccnc1C(=O)NC1=CC(=O)C2OC2C1O` (racemic) [Example 20, (±)-3-methoxy-pyridine-2-carboxylic acid (2-hydroxy-5-oxo-7-oxa-bicyclo[4.1.0]hept-3-en-3-yl)-amide], the results for the EC50 in experiment [1], in experiment [2] and in experiment [3] (RAW 264.7 cells) were 9.6 µM, 7.7 µM and 1400 nM, respectively. Besides, the IC50 in experiment [4] was 5.8 µM. The inhibition at 5 µM in experiment [5] came to 1%; in experiment [6], 18%; in experiment [7] it was 29%; in experiment [8], 40%.

As for `Cc1ccc(S(=O)(=O)O)cc1.O=C(NC1=CC(=O)C2OC2C1O)c1ncccc1O` (racemic) [Example 14, (±)-3-hydroxy-N-(2-hydroxy-5-oxo-7-oxabicyclo[4.1.0]hept-3-en-3-yl)picolinamide tosylate], the EC50 was found to be 23 µM in experiment [1] (tosylate) and 3300 nM in experiment [3] (RAW 264.7 cells, tosylate). Further, the “p52 binding % inhibit. at 5 uM” value in experiment [6] is 6%. Also, the “RelB binding % inhibit. at 5 uM” value in experiment [7] was found to be 9%. In experiment [8], the “c-Rel binding % inhibit. at 5 uM” value was determined as 1%.

Consider `COc1ncccc1C(=O)NC1=CC(=O)C2OC2C1O` (racemic) [Example 21, (±)-N-(2-hydroxy-5-oxo-7-oxa-bicyclo[4.1.0]hept-3-en-3-yl)-2-methoxy-nicotinamide trifluoroacetate], for which the EC50 in experiment [1] (trifluoroacetate) stood at 5.8 µM; in experiment [3] (RAW 264.7 cells, trifluoroacetate), 380 nM. The IC50 in experiment [4] was 0.55 µM; in experiment [5], 22 µM; in experiment [6], 22 µM; in experiment [7] it was 1.5 µM; in experiment [8], 1.1 µM.
